From patent US20060205826A1, “Method of using carotenoids in the prevention of cognitive decline and for other neuroprotection functions” (priority 2005, published 2006)
“Also recorded” adds a separate entry of the source.

Columns and labels:
Type in all cases: in vivo
NF-κB = NF-κB activity (TransAm Kit) in retina and hippocampus of diabetic mice; conditions: 15 days post alloxan, lutein treatment before and after diabetes induction
Description: Male albino mice were used throughout the study, housed in a environmentally regulated room on a dark-light cycle of 12 hours with free access to food and water. Principles of laboratory animal care (NIH publication no. 85-23, revised 1985) were followed, as well as specific Spanish regulations. Animals were made diabetic with a single subcutaneous injection of 200 mg alloxan/kg body weight (66 mg/ml) in 0.1 M citrate buffer, pH 4.5, at day 0 of the experiment. Control mice were injected with the same volume of vehicle also at day 0 of the experiment. Mice were identified as diabetic on the basis of blood glucose levels (higher than 16 mM at least 4 days after alloxan treatment). Animals were divided into subgroups as required by the experiment (control, control+lutein, diabetic, diabetic+lutein, diabetic+insulin, diabetic+insulin+lutein). […] Insulin treated animals were injected daily with 500 mU/g body weight since day 4 until the end of the experiment. Mice were killed by cervical dislocation on day 14, and hippocampus and retina were removed and homogenized in pre-chilled 0.2 M potassium phosphate buffer, pH 7.0. […] Glycated hemoglobin was determined in blood samples obtained by heart puncture immediately before killing the animals. NF-κB activity was determined with TransAm Kit (Active Motif) that combines an ELISA test with an specific assay for transcription factors. […]

hippocampal stem cells = assay: Hippocampal neurogenesis (BrdU immunostaining, cell counting) in diabetic mice; conditions: two weeks after the induction of diabetes, preliminary data
Source text: All animals were killed with a barbiturate overdose; each group had n>8. After intracardial perfusion with 4% paraformaldehyde, brains were cut into 40-μm-thick sections (200 μm, 1 every sixth section, used for electron microscopy analysis) with a vibratome (Leica VT100M).
Sections were immersed free-floating in 0.1 M phosphate buffer plus 0.05 % sodium azide. Twenty-four-well plates were used to keep the sections separate and preserve the order of the series. Sections that were 40 μm thick were used for cell counting. Incubations were performed in 0.1 M phosphate buffer with 0.2% Triton X-100 and 10% normal goat serum. Sections were blocked by incubating for 30 min in a solution of 3% hydrogen peroxide for diaminobenzidine (Sigma) staining. BrdU immunohistochemistry was preceded with DNA denaturation of 25 min of incubation in 2 M HCl at 37° C. The primary antibodies used were 1:200 mouse anti-BrdU (Dako). […]
Cell Counting. BrdU-positive cells were counted in sections spaced 400 μm apart by using a Nikon Eclipse E200 with a Nikon 40X Plan objective (0.65 numerical aperture) throughout the granule cell layer. […] Data were expressed as total, for the whole structure, and also subanalyzed in three regions: anterior, middle, and posterior.

[1] = test system: MDA, a lipid peroxidation product; assay: MDA concentration by liquid chromatography in serum, eye and hippocampus of diabetic mice
Description: Male albino mice were used throughout the study, housed in a environmentally regulated room on a dark-light cycle of 12 hours with free access to food and water. Principles of laboratory animal care (NIH publication no. 85-23, revised 1985) were followed, as well as specific Spanish regulations. Animals were made diabetic with a single subcutaneous injection of 200 mg alloxan/kg body weight (66 mg/ml) in 0.1 M citrate buffer, pH 4.5, at day 0 of the experiment. Control mice were injected with the same volume of vehicle also at day 0 of the experiment.
Mice were identified as diabetic on the basis of blood glucose levels (higher than 16 mM at least 4 days after alloxan treatment). Animals were divided into subgroups as required by the experiment (control, control+lutein, diabetic, diabetic+lutein, diabetic+insulin, diabetic+insulin+lutein). […] Insulin treated animals were injected daily with 500 mU/g body weight since day 4 until the end of the experiment. Mice were killed by cervical dislocation on day 14, and hippocampus and retina were removed and homogenized in pre-chilled 0.2 M potassium phosphate buffer, pH 7.0. These homogenates were used to assay protein, GPx activity and MDA and GSH concentrations. Samples were kept frozen (−80° C.) until biochemical assays were performed. Blood was taken from the tail vein daily to assay blood glucose levels. Glycated hemoglobin was determined in blood samples obtained by heart puncture immediately before killing the animals.
MDA, a lipid peroxidation product, concentration was measured by liquid chromatography according to a modification of the method of Richard et al. (1992) as previously described (Romero et al., 1998). Briefly, 0.1 ml of sample (or standard solutions prepared daily from 1,1,3,3-tetramethoxypropane) and 0.75 ml of working solution (thiobarbituric acid 0.37% and perchloric acid 6.4%; 2/1, v/v) were mixed and heated to 95° C. for 1 h. After cooling (10 min in ice water bath), the flocculent precipitate was removed by centrifugation at 3,200×g for 10 min. The supernatant was neutralized and filtered (0.22 μm) prior to injection on an ODS column 5 μm column (250×4.6 mm). Mobile phase consisted in 50 mM phosphate buffer (pH 6.0): methanol (58:42, v/v). Isocratic separation was performed with 1.0 ml/min flow (HPLC System 325, Kontron) and detection at 532 nm (UV/VIS HPLC Detector 332, Kontron). Calibration curves were run daily.

[2] = lutein 100 mg/kg p.o. or insulin 500 mU/g body weight s.c. on days 4-13

## CC1=C[C@H](O)CC(C)(C)[C@H]1/C=C/C(C)=C/C=C/C(C)=C/C=C/C=C(C)/C=C/C=C(C)/C=C/C1=C(C)C[C@@H](O)CC1(C)C [Lutein]
NF-κB
  NF-κB expression in hippocampus: decreased
  NF-κB expression in retina: decreased
Hippocampal stem cells
  proliferation of hippocampal stem cells: able to prevent the impairment in proliferation; also recorded: able to restore this alteration
[1]; lutein 0.2 mg/kg p.o. or insulin 500 mU/g body weight s.c. on days 4-13
  MDA levels in hippocampus: restored
[1]; lutein 0.2 mg/kg p.o. or insulin 500 mU/g body weight s.c. on days 4-13, listed as lutein
  MDA levels in hippocampus: able to prevent this effect
[1]; [2]
  MDA levels in ocular tissue: restored
  MDA levels in serum: restored
[1]; lutein 100 mg/kg p.o. or insulin 500 mU/g body weight s.c. on days 4-13, listed as lutein
  MDA levels in ocular tissue: able to prevent this effect
